The text below walks through data of patent publication US20240279302A1, “OLFACTORY RECEPTOR EXPRESSING METHOD AND RESPONSE MEASUREMENT METHOD” (Kao Corporation, priority 2021, published 2024).

Holding throughout (test): Luciferase assay, sulfur compounds
Common to all, as to format: cell-based

Test [1] addresses T1, OR4S2 (original olfactory receptor) (Homo sapiens, UniProt Q8NH73).
T1 construct: expressed in transfected cells; host or cells: HEK293
T1 sequence (Q8NH73 1-311): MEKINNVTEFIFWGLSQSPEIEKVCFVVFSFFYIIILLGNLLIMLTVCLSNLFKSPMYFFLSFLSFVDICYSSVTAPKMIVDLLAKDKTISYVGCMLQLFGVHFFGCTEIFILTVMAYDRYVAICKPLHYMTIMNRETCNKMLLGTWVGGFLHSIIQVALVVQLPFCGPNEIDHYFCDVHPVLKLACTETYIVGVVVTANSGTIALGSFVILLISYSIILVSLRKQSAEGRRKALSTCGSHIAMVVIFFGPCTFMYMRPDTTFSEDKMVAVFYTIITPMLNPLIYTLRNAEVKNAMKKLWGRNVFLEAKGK
Particulars: for dose dependence of the response of OR4S2 / response of OR4S2: in the presence of a copper ion. Here is the method: (§1) A reaction solution as to each consensus olfactory receptor prepared in Examples described above was prepared according to the composition shown in Table 4, left standing for 20 minutes in a clean bench, and then added to each well of a 96-well plate (Becton, Dickinson and Company). The original olfactory receptor was used as to OR4S2. Composition shown in Table 20 was used as to OR11H2 and OR4E2. Subsequently, 100 μL of HEK293 cells suspended in DMEM (Nacalai Tesque, Inc.) was inoculated at 2×10^5 cells/cm^2 to each well, and cultured for 24 hours in an incubator kept at 37° C. and 5% CO2. Cells expressing no olfactory receptor (Mock) were provided as a control.
(§2) The medium was removed from the cultures prepared in 1), and 75 μL of a test substance solution (methyl mercaptan (MeSH) (CAS: 74-93-1, Tokyo Chemical Industry Co., Ltd.), dimethyl sulfide (DMS) (CAS: 75-18-3, FUJIFILM Wako Pure Chemical Corp.), dimethyl disulfide (DMDS) (CAS: 624-92-0, Tokyo Chemical Industry Co., Ltd.), concentration range: 0 μM, 1 μM, 3 μM, 10 μM, 30 μM, 100 μM, and 300 μM, or dimethyl trisulfide (DMTS) (CAS: 3658-80-8, Tokyo Chemical Industry Co., Ltd.), concentration range: 0 μM, 0.1 μM, 0.3 μM, 1 μM, 3 μM, 10 μM, and 30 μM) prepared with a fresh medium was added thereto. Under a copper ion addition condition, the test substance solution was adjusted to contain 30 μM copper(II) chloride (FUJIFILM Wako Pure Chemical Corp.) in addition to the odorant. The cells were cultured for 4 hours in a CO2 incubator and the luciferase gene was expressed sufficiently in the cells. Luciferase activity was measured using Dual-Glo™ luciferase assay system (Promega Corp.) in accordance with the operation manual of the product. A luminescence value derived from firefly luciferase induced by test substance stimulation in each well of the 96-well plate was divided by a luminescence value derived from Renilla luciferase to calculate a value (fluc/hRluc) as a signal, which was then used in analysis. The signal under each transfection condition was normalized with the signal value (fluc/hRluc) under an odorant stimulation-free condition defined as 0% and the signal value (fluc/hRluc) by stimulation with 10 μM forskolin defined as 100%, and used as a response (%) in analysis.

A further test concerns the target T2, consensus OR2T11 (Homo sapiens, UniProt Q8NH01).
T2 construct: fused on or other part: N-terminal Flag-Rho tag from the pME18S vector
The procedure: as §1, §2

Another test has as its target T3, consensus OR4C15 (Homo sapiens, UniProt Q8NGM1, A218G/A270V/E23K/G63A/I200A/I247V/I275T/L152F/L222F/L266F/M197L/N174D/N209I/N278T/Q295N/R137W/R299K/T258A/T88R/V55G/V87E/W233R).
T3 construct: Flag (N); Rho tag (N); expressed in transfected cells; host or cells: HEK293
The procedure: as §1, §2

A further test deals with T4, consensus OR6B3 (Homo sapiens, UniProt Q8NGW1, A219G/C161Y/C234R/F239S/F305L/G10S/I281L/L135I/L142V/M157V/M215V/P138T/Q89R/R8K/S64G/T78I/V136M/V15L/V166A/V250I).
T4 construct: expressed in transfected cells; host or cells: HEK293
T4 sequence (Q8NGW1 with tags, fused parts or gaps R8K/G10S/V15L/S64G/T78I/Q89R/L135I/V136M/P138T/L142V/M157V/C161Y/V166A/M215V/A219G/C234R/F239S/V250I/I281L/F305L): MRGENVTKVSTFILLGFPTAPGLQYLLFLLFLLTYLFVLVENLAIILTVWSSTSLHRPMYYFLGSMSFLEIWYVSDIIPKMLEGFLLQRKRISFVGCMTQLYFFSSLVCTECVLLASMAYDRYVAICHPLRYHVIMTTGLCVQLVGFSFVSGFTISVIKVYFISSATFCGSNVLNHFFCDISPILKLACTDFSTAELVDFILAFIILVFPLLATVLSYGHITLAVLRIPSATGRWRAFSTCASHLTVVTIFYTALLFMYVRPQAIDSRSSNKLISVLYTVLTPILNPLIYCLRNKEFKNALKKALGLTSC
Here is the method: as §1, §2

In the next test the target is T5, consensus OR11H2 (Homo sapiens, UniProt Q8NH07, A157T/A61V/C266F/D203A/E289A/F213L/F41L/F62C/G242R/I210T/I230L/I288V/I49T/K181M/K238L/L128F/L146H/L162I/M76I/N106T/N25R/P269S/Q137R/Q308R/Q30L/R68Q/S246A/S268G/T131A/T283A/T37K/V63A/Y156C).
T5 construct: expressed in transfected cells; host or cells: HEK293
T5 sequence (Q8NH07 12-326 N25R/Q30L/T37K/F41L/I49T/A61V/F62C/V63A/R68Q/M76I/N106T/L128F/T131A/Q137R/L146H/Y156C/A157T/L162I/K181M/D203A/I210T/F213L/I230L/K238L/G242R/S246A/C266F/S268G/P269S/T283A/I288V/E289A/Q308R): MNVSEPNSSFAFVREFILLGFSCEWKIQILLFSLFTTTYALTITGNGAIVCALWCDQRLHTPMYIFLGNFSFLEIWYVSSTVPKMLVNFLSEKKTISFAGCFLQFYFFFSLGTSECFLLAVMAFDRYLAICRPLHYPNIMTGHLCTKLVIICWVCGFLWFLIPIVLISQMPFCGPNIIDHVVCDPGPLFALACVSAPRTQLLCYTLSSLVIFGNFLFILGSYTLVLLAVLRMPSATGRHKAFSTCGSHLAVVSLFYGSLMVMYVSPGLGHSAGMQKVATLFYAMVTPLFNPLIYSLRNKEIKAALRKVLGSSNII
The note with it: in the presence of a copper ion. The procedure:
as §1, §2

The mark [2] stands for this setting: in the presence of a copper ion.
Setting [3] is: read-out: EC50(μM) with 30 μM CuCl2; consensus OR2T11; 30 μM CuCl2.

Read-outs that look alike come from different tables or passages of the source.

T2 sequence (Q8NH01 whole entry, looked up, the tested form may be a part): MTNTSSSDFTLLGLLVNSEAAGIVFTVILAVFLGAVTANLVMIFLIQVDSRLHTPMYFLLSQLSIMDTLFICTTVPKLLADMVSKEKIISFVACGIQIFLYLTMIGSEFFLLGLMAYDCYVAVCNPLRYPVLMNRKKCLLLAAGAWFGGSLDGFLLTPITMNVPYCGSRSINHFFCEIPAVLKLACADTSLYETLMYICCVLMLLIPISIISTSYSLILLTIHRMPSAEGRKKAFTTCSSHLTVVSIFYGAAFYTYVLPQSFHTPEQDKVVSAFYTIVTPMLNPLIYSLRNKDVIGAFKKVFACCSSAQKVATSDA
T3 sequence (Q8NGM1 1-311 with the stated changes limits assumed): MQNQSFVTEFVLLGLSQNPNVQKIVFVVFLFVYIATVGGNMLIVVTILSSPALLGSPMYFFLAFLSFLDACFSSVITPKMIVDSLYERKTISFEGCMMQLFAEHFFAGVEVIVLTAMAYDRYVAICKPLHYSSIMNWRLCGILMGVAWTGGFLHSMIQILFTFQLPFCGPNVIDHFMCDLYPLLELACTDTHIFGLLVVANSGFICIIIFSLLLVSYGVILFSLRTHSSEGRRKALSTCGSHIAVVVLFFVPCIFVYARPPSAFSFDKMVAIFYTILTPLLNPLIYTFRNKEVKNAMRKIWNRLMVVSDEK

A word on the EC50: it is the concentration giving half of the maximal effect. Consider `CSSC` [dimethyl disulfide], for which, in test [1], the half-maximal effective concentration (EC50) is 530 µM, the “dose dependence of the response of OR4S2” value is “dose-dependent response” and the “response of OR4S2” value was “responded”. For the same molecule, at consensus OR2T11 (setting [2]), the “dose dependence of the response of consensus OR2T11” value is on record as “dose-dependent response” and the “response of consensus OR2T11” value was “responded”. In addition, at consensus OR2T11 (setting [3]), the concentration giving a half-maximal response (EC50) is 246 µM. The molecule also showed an EC50 on consensus OR4C15 of 615 µM. In addition, at consensus OR4C15 (setting [2]), the “dose dependence of the response of consensus OR4C15” value is “dose-dependent response” and the “response of consensus OR4C15” value was “responded”. Moreover, the EC50 at consensus OR6B3 is 1600 µM. For the same molecule, on consensus OR6B3 (setting [2]), the “dose dependence of the response of consensus OR6B3” value is recorded as “dose-dependent response” and the “response of consensus OR6B3” value is given as “responded”. For the same molecule, the “response of consensus OR11H2” value at consensus OR11H2 is “responded”.

Consider `CS` [methyl mercaptan], for which the “response of OR4S2” value in test [1] was “responded”. Further, at consensus OR2T11 (setting [2]), the “dose dependence of the response of consensus OR2T11” value is on record as “dose-dependent response” and the “response of consensus OR2T11” value is “responded”. Moreover, the EC50 at consensus OR2T11 (setting [3]) was 5 µM. The “response of consensus OR4C15” value on consensus OR4C15 (setting [2]) was “responded”. The “response of consensus OR6B3” value at consensus OR6B3 (setting [2]) is given as “responded”. In addition, at consensus OR11H2, the “response of consensus OR11H2” value is “responded”.

Turning to `CSSSC` [dimethyl trisulfide], the 50% effective concentration (EC50) in test [1] (OR4S2 (original), 30 μM CuCl2, read-out: EC50(μM) with 30 μM CuCl2) was found to be 28 µM. Moreover, in test [1], the “dose dependence of the response of OR4S2” value is recorded as “dose-dependent response” and the “response of OR4S2” value is listed as “responded”. Also, the concentration for a half-maximal effect (EC50) on consensus OR2T11 (consensus OR2T11; 30 μM CuCl2; read-out: EC50(μM) with 30 μM CuCl2) was 26 µM. Besides, on consensus OR2T11 (setting [2]), the “dose dependence of the response of consensus OR2T11” value is “dose-dependent response” and the “response of consensus OR2T11” value was “responded”. On consensus OR4C15 (setting [2]), the “response of consensus OR4C15” value is “responded”. On consensus OR6B3 (setting [2]), the “response of consensus OR6B3” value is given as “responded”. Further, the “response of consensus OR11H2” value at consensus OR11H2 is “responded”.
